Test results published in patent US11530196B2, “Pyrimidine compound acting on EGFR and ERBB2” (CHINA RESOURCES PHARMACEUTICAL HOLDINGS COMPANY LIMITED, priority 2019, dated 2022).

Tested on: human lung cancer NCI-H1975 subcutaneous xenograft tumor
Test: NCI-H1975 subcutaneous xenograft tumor BALB/c nude mouse model
Type: in vivo, BALB/c nude mice
Description: Human lung cancer NCI-H1975 cells were cultured in vitro in a monolayer under the conditions of 1640 medium with 10% fetal bovine serum, 1% double antibodies and incubated at 37° C. in a 5% CO2 incubator. Routine treatment passages were performed twice a week. When the cell saturation was 80%-90% and the number reached the required level, the cells were collected, counted, and inoculated.
BALB/c nude mice, female, 6-8 weeks old, weighing 18-22 g. Provided by Shanghai Xipuer-Bikai Laboratory Animal Co., Ltd. or other qualified suppliers.
Tumor tissue was collected from H1975 tumor-bearing mice of human lung cancer xenograft model, cut into 2-3 mm diameter tumor blocks and inoculated subcutaneously at the right anterior scapula of Balb/c nude mice. When the average tumor volume was 145 mm^3, the tumors were randomly grouped according to their size, and the day of grouping was defined as day 0.
The experimental index was to examine whether tumor growth was inhibited, delayed or cured. Tumor diameters were measured with vernier calipers twice a week. The calculation formula of tumor volume was: V=0.5a×b^2, wherein a and b represented the long and short diameters of the tumor, respectively. The antitumor efficacy of the compounds was evaluated by TGI (%) or relative tumor proliferation rate T/C (%). TGI (%), reflecting the tumor growth inhibition rate. Calculation of TGI (%): TGI (%)=[(1−(average tumor volume at the end of administration of a treatment group−average tumor volume at the beginning of administration of this treatment group))/(average tumor volume at the end of treatment in the solvent control group−average tumor volume at the beginning of treatment of the solvent control group)]×100%. Relative tumor proliferation rate T/C (%): The calculation formula was as follows: T/C %=TRTV/CRTV×100% (TRTV: RTV in the treatment group; CRTV: RTV in the negative control group). The relative tumor volume (RTV) was calculated according to the results of tumor measurement, and the formula was RTV=Vt/V0, wherein V0 was the average tumor volume measured at the time of group administration (i.e., d0), and Vt was the average tumor volume at a certain measurement, TRTV and CRTV were taken on the same day. After the experiment, the tumor weight will be detected, and the percentage of T/Cweight will be calculated. Tweight and Cweight represented the tumor weight of the administration group and the solvent control group, respectively.

## C=CC(=O)Nc1cc(Nc2ncc(C(=O)OC(C)C)c(-c3cn(OC)c4ccccc34)n2)c(OC)cc1N(C)CCN(C)C.CS(=O)(=O)O [Compound 1]
Day 0 (grouping), mean ± standard error, n = 6
  Tumor volume (Day 0): 153 ± 7 mm^3
Day 20
  RTV: 0.20 ± 0.10
  T/C: 1.35%
  TGI: 105.3%
Day 20, mean ± standard error, n = 6
  Tumor volume (Day 20): 33 ± 16 mm^3
